Experimental data as given in patent US8058243B2, “Method for treating a brain cancer with ifenprodil” (HSC Research and Development Limited Partnership, priority 2006, dated 2011).
Like-named read-outs stand apart in the source and are kept apart here.

Columns and labels:
[1] = system: murine neural precursor cells (neurosphere cultures); assay: HTS of LOPAC library against secondary neurosphere cultures, MTT proliferation assay at 3 μM, day 7 (z score, P value); format: cell-based, mouse
[2] = system: mouse NSC neurosphere cultures; assay: Dose-response curves and EC50, neurosphere MTT proliferation, 7 days; format: cell-based
[3] = system: nestin expression in NPCs; assay: Flow cytometric analysis of nestin in NPCs; format: cell-based, mouse
Procedure: (d) Flow cytometric analysis of the neural precursor marker nestin in NPCs after 2 d of treatment with ifenprodil (5 μM) or vehicle.

[4] = system: Ptch1+/− Trp53−/− medulloblastoma neurosphere cultures; assay: Tumor sphere MTT proliferation EC50; format: cell-based, mouse; settings: cultures derived from mouse cerebellar tumor samples; read-out: Ptch1+/− Trp53−/− neurosphere EC50
Text: (§1) Astrocyte Screen and Neurosphere Selectivity Assessment. […] Murine Medulloblastoma Generation and Culture. […] Flow Cytometry. […] Results

[5] = system: hGBM2 precursors (WHO grade IV GBM, giant cell variant); assay: Human glioblastoma precursor EC50 (hGBM2); format: cell-based
[6] = system: hGBM1 precursors (WHO grade IV GBM); assay: Human glioblastoma precursor EC50 (hGBM1); format: cell-based
[7] = system: neural precursors derived from human fetal CNS tissue (hFetal); assay: Human fetal neural precursor EC50; format: cell-based
[8] = system: ptc1+/− medulloblastoma precursor cells (neurosphere cultures); assay: Medulloblastoma tumor sphere MTT proliferation EC50; format: cell-based, mouse
Text: as §1

[9] = system: medulloblastoma formation; settings: mice; cited from earlier work
[10] = cited from earlier work
[11] = system: ptc1+/− tumor cell growth; settings: cited from earlier work
[12] = system: NPC colony formation; assay: Inhibition of colony formation by bromocriptine with and without (±)-sulpiride; format: cell-based, mouse
Text: (e) Inhibition of colony formation by bromocriptine in cultures with and without (±)-sulpiride supplementation. Normalized mean and s.e.m. values of three independent triplicate cultures are shown. […] Scale bars, 500 mm.

[13] = system: NSC fraction of neurosphere cultures; settings: 7 day pretreatment at estimated EC75 (apomorphine EC50); 2,000 or 1,000 cells
[14] = LOPAC library screen, 3 μM, MTT, secondary neurosphere cultures, day 7
[15] = LOPAC primary screen, neurosphere MTT proliferation, 3 μM, day 7
[16] = yes/no: significantly inhibited neurosphere proliferation (P<0.01) in the primary screen
[17] = 168 h, normal mouse neurosphere cultures, MTT, 7 days, read-out: Neurosphere EC50
[18] = Mus musculus, read-out: EC 50% Neurosphere, Table 5
[19] = Mus musculus, Table 8, read-out: Neurosphere EC50
[20] = Mus musculus, ptc1+/− medulloblastoma derived neurospheres, read-out: Medulloblastoma Neurosphere EC50
[21] = cultures derived from mouse cerebellar tumor samples, read-out: Ptch1+/− neurosphere EC50
[22] = Table 8, read-out: Neurosphere EC50
[23] = normal mouse neurosphere cultures, MTT, 7 days, read-out: Neurosphere EC50
[24] = read-out: EC 50% Neurosphere, Table 5
[25] = ptc1+/− medulloblastoma derived neurospheres, read-out: Medulloblastoma Neurosphere EC50

| Compound | Z Score [1, 14] | Z score [1, 15] | EC50 [2, 17] [nM] | EC50 [2, 18] [nM] | EC50 [2, 19] [nM] | EC50 [4] [nM] | EC50 [7] [nM] | EC50 [8, 20] [nM] | EC50 [8, 21] [nM] | EC50 [2, 22] [nM] | also measured |
| --- | --- | --- | --- | --- | --- | --- | --- | --- | --- | --- | --- |
| CC(C(O)c1ccc(O)cc1)N1CCC(Cc2ccccc2)CC1 (stereo not drawn) [Ifenprodil (9), Ifenprodil] | −8.904 | −8.904 | 616 | 616 | 616 | 807 | 420 | 451 | 451 |  | Activity [1, 16]: yes; nestin negative cells ([3]; 2 d treatment, 5 μM, vehicle 20%): 63%; expression of the immature NPC marker nestin ([3]; treatment for 2 d): substantially decreased; EC50 ([5]; Homo sapiens): 206 nM; EC50 ([6]; Homo sapiens): 1990 nM |
| O=C(Nc1ccccc1)C12CC1/C(=N\O)c1ccccc1O2 (stereo not drawn) [PHCCC] |  |  |  |  |  |  |  |  |  |  | medulloblastoma formation in vivo [9]: attenuate medulloblastoma formation |
| N.N.O=C([O-])C1(C(=O)[O-])CCC1.[Pt+2] [Carboplatin (3), Carboplatin] | −6.204 | −6.204 |  |  |  |  | 430 |  | 196 | 489 | Activity ([1]; yes = significantly inhibited neurosphere proliferation (P<0.01) in the primary screen): yes; EC50 [2, 23]: 489 nM; EC50 [2, 24]: 489 nM; EC50 [5]: 3300 nM; EC50 [6]: 2040 nM; EC50 [8, 25]: 196 nM |
| COc1cc([C@@H]2c3cc4c(cc3[C@@H](O[C@@H]3O[C@@H]5CO[C@@H](C)O[C@H]5[C@H](O)[C@H]3O)[C@H]3COC(=O)[C@H]23)OCO4)cc(OC)c1O [Etoposide (2), Etoposide] | −11.1 | −11.102 | 340 | 340 | 340 |  | 160 | 208 | 208 |  | Activity [1, 16]: yes; EC50 ([5]; Homo sapiens): 270 nM; EC50 ([6]; Homo sapiens): 620 nM |
| CN1CCc2cccc3c2[C@H]1Cc1ccc(O)c(O)c1-3 [(R)-(−)-Apomorphine (6), (R)-(−)-Apomorphine] | −11.27 | −11.274 | 350 | 350 | 350 |  |  | 168 | 168 |  | Activity [1]: yes; EC50 ([5]; Homo sapiens): 310 nM; EC50 ([6]; Homo sapiens): 14600 nM; Effective in vivo concentrations [10]: 6 to 7 µM |
| CC(C)(C)[C@]1(O)CCN2C[C@H]3c4ccccc4CCc4cccc(c43)[C@@H]2C1 (racemic) [(±) Butaclamol (4), (±)-Butaclamol] |  |  | 785 | 785 | 785 | 2530 |  | 751 | 751 |  | Activity [1]: yes; Z score ([1]; 168 h, 3 µM): −5.934 |
| CC1=C2C[C@H]3[C@@H](CC=C4C[C@@H](O)CC[C@@]43C)[C@@H]2CC[C@]12O[C@@H]1C[C@H](C)CN[C@H]1[C@H]2C [Cyclopamine (16), Cyclopamine] |  |  |  |  |  |  |  |  |  |  | reported concentration for inhibition of ptc1+/− tumor cell growth in vitro [11]: 5 µM; EC50 ([8]; Mus musculus, read-out: Ptch1+/− neurosphere EC50): 1000 nM |
| CCN1CCCC1CNC(=O)c1cc(S(N)(=O)=O)ccc1OC (racemic) [(±)-sulpride, reference compound] |  | −0.284 |  |  |  |  |  |  |  |  | Activity [1, 16]: no; rescue of the inhibitory effects of bromocriptine ([12]; colony formation and MTT values): able to competitively rescue the inhibitory effects |
| Nc1ccc(CCN2CCN(c3cccc(C(F)(F)F)c3)CC2)cc1 [PAPP (14), p-aminophenethyl-m-trifluoromethylphenyl piperazine] |  |  |  |  |  | 97 | 220 |  | 169 | 31 | Activity [1]: yes; Z Score [1]: −10.73; Z score [1]: −10.728; EC50 [2, 23]: 31 nM; EC50 [2, 24]: 31 nM; secondary neurosphere formation upon re-culture in the absence of drug (replating efficiency) [13]: reduction in replating efficiency; expression of the immature NPC marker nestin [3]: substantially decreased; EC50 [5]: 310 nM; EC50 [6]: 1870 nM; EC50 [8, 25]: 169 nM |
| O[Si](CCCN1CCCCC1)(c1ccc(F)cc1)C1CCCCC1 (stereo not drawn) [p-F-HHSiD (8), p-fluoro-hexahydrosila-difenidol] |  |  |  |  |  | 1370 | 10600 |  | 1120 | 441 | EC50 [2, 23]: 441 nM; EC50 [2, 24]: 441 nM; EC50 [5]: 1230 nM; EC50 [6]: 12600 nM; EC50 [8, 25]: 1120 nM |
| CC(C)C[C@H]1C(=O)N2CCC[C@H]2[C@]2(O)O[C@](NC(=O)[C@@H]3C=C4c5cccc6[nH]c(Br)c(c56)C[C@H]4N(C)C3)(C(C)C)C(=O)N12 [(+)-Bromocripline (18), (+)-Bromocripline] |  |  |  |  |  |  |  |  |  | 1190 | EC50 ([12]; with (±)-sulpiride supplementation, read-out: EC50 of inhibition of colony formation, with sulpiride): 2500 nM; EC50 ([12]; without sulpiride, read-out: EC50 of inhibition of colony formation, without sulpiride): 1200 nM |
